Measurements: ChEMBL document CHEMBL1201862, “PubChem BioAssay data set” (2004)
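All cell lines were grown in 96-well plates and treated with compound for 48 hours. Abbreviation: GI50, concentration required for 50% inhibition of growth.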 Calls of active or inactive are those of the source. Rule as the data show it: active = GI50 up to about 1.1 µM and inactive = higher.

Experiments:
Assay in all cases: NCI-60 cell line screen, 48 h
HCC 2998 = tested on: HCC 2998
SR = tested on: SR
LOX IMVI = tested on: LOX IMVI
OVCAR-5 = tested on: OVCAR-5
HOP-62 = tested on: HOP-62
Hs-578T = tested on: Hs-578T
COLO 205 = tested on: COLO 205
SK-OV-3 = tested on: SK-OV-3
HT-29 = tested on: HT-29
PC-3 = tested on: PC-3
NCI-H522 = tested on: NCI-H522
M14 = tested on: M14
DU-145 = tested on: DU-145
MCF7 = tested on: MCF7
KM12 = tested on: KM12
SF-268 = tested on: SF-268
OVCAR-4 = tested on: OVCAR-4
A549 = tested on: A549
OVCAR-8 = tested on: OVCAR-8
RPMI-8226 = tested on: RPMI-8226

Structure (SMILES) | GI50 (HCC 2998) | GI50 (SR) | GI50 (LOX IMVI) | GI50 (OVCAR-5) | GI50 (HOP-62) | GI50 (Hs-578T) | GI50 (COLO 205) | GI50 (SK-OV-3) | GI50 (HT-29) | GI50 (PC-3) | GI50 (NCI-H522) | GI50 (M14) | GI50 (DU-145) | GI50 (MCF7) | GI50 (KM12) | GI50 (SF-268) | GI50 (OVCAR-4) | GI50 (A549) | GI50 (OVCAR-8) | GI50 (RPMI-8226)
O/N=C1\CCc2cc3c(cc21)CCC3 | > 100 µM (inactive) | > 100 µM (inactive) | > 100 µM (inactive) | > 100 µM (inactive) | > 100 µM (inactive) | 34.9 µM (inactive) | > 100 µM (inactive) | > 100 µM (inactive) | > 100 µM (inactive) | > 100 µM (inactive) | > 100 µM (inactive) | > 100 µM (inactive) | > 100 µM (inactive) | > 100 µM (inactive) | > 100 µM (inactive) | 97.9 µM (inactive) | > 100 µM (inactive) | > 100 µM (inactive) | > 100 µM (inactive) | > 100 µM (inactive)
Cc1ccc(O)c(C2=NNC(c3cccc(Br)c3)C2)c1 (configuration not stated) | 60.8 µM (inactive) | 27.8 µM (inactive) | 38.3 µM (inactive) | > 100 µM (inactive) | 86.3 µM (inactive) | 37.3 µM (inactive) | > 100 µM (inactive) | 34.3 µM (inactive) | 64.1 µM (inactive) | 45.8 µM (inactive) | 28.5 µM (inactive) | > 100 µM (inactive) | 81.3 µM (inactive) | 33.8 µM (inactive) | 63.4 µM (inactive) | 71 µM (inactive) |  | 44.5 µM (inactive) | 98.9 µM (inactive) | 21.9 µM (inactive)
COC(=O)/C(C#N)=C(\Nc1ccccc1)N1CCCC1 | > 100 µM (inactive) | > 100 µM (inactive) | > 100 µM (inactive) | > 100 µM (inactive) | > 100 µM (inactive) | > 100 µM (inactive) | > 100 µM (inactive) | > 100 µM (inactive) | > 100 µM (inactive) | > 100 µM (inactive) | > 100 µM (inactive) | > 100 µM (inactive) | > 100 µM (inactive) | > 100 µM (inactive) |  | > 100 µM (inactive) | > 100 µM (inactive) | > 100 µM (inactive) | > 100 µM (inactive) | > 100 µM (inactive)
CCN(CC)CCC1(C(=O)OC)SCCc2ccc(C)cc21 (configuration not stated) | > 100 µM (inactive) | > 100 µM (inactive) | > 100 µM (inactive) | > 100 µM (inactive) | > 100 µM (inactive) | > 100 µM (inactive) | > 100 µM (inactive) | > 100 µM (inactive) |  | > 100 µM (inactive) | > 100 µM (inactive) | > 100 µM (inactive) | > 100 µM (inactive) | > 100 µM (inactive) | > 100 µM (inactive) | > 100 µM (inactive) | > 100 µM (inactive) | > 100 µM (inactive) | > 100 µM (inactive) | > 100 µM (inactive)
C=CCN(c1cc(OC)c2[nH]cc(C)c2c1[N+](=O)[O-])S(C)(=O)=O | > 100 µM (inactive) | > 100 µM (inactive) | > 100 µM (inactive) | > 100 µM (inactive) | > 100 µM (inactive) | > 100 µM (inactive) | > 100 µM (inactive) | > 100 µM (inactive) |  | > 100 µM (inactive) | > 100 µM (inactive) | > 100 µM (inactive) | > 100 µM (inactive) | > 100 µM (inactive) | > 100 µM (inactive) | > 100 µM (inactive) | > 100 µM (inactive) | > 100 µM (inactive) | > 100 µM (inactive) | > 100 µM (inactive)
S=C1N(/N=C/c2c3ccccc3cc3ccccc23)C(=N\c2ccccc2)/C(=N/c2ccccc2)N1c1ccccc1 | > 100 µM (inactive) | > 100 µM (inactive) |  | > 100 µM (inactive) | > 100 µM (inactive) | > 100 µM (inactive) | > 100 µM (inactive) | > 100 µM (inactive) | > 100 µM (inactive) | > 100 µM (inactive) | > 100 µM (inactive) | > 100 µM (inactive) | > 100 µM (inactive) | > 100 µM (inactive) | > 100 µM (inactive) | > 100 µM (inactive) |  | > 100 µM (inactive) | > 100 µM (inactive) | > 100 µM (inactive)
Cc1cc(N2CCCC2)c([N+](=O)[O-])cc1[N+](=O)[O-] | > 100 µM (inactive) | > 100 µM (inactive) | > 100 µM (inactive) |  |  | 90.4 µM (inactive) | > 100 µM (inactive) | > 100 µM (inactive) | > 100 µM (inactive) | > 100 µM (inactive) | > 100 µM (inactive) | > 100 µM (inactive) | > 100 µM (inactive) | > 100 µM (inactive) | > 100 µM (inactive) | > 100 µM (inactive) | > 100 µM (inactive) | > 100 µM (inactive) | > 100 µM (inactive) | > 100 µM (inactive)
C/C(=N\Nc1nc2ccccc2o1)c1cccc[n+]1[O-] | 0.0769 µM (active) | 6.19 µM (inactive) | 13.4 µM (inactive) | 11.4 µM (inactive) | 10.5 µM (inactive) | > 100 µM (inactive) | 4.73 µM (inactive) | 22.5 µM (inactive) | 5.13 µM (inactive) | 5.36 µM (inactive) | 3.86 µM (inactive) | 5.87 µM (inactive) | 27.8 µM (inactive) | 5.98 µM (inactive) | 23.2 µM (inactive) | 19.1 µM (inactive) | 5.45 µM (inactive) | 24.5 µM (inactive) | 20 µM (inactive) | 12 µM (inactive)
